The source of these data is patent publication US6429204B1, “Method of inhibiting cancer growth” (University of Miami, priority 1997, dated 2002).

Values joined by “and” are separate entries in the source; they are usually repeats but may differ in a detail not shown here. Equal entries are not always repeated.

Data set [1] has as its system prostate cancer cells. In words: Invasive potential of prostate cancer cells in vitro (summary). The data set is classed as cell-based. The note with it: 5 μg/mL.
Data set [2] relates to COLO 205 Cells. In words: MTS cytotoxicity assay, COLO 205. To be noted: two days.
For data set [3], the system named is Dunning MAT LyLu cells. As to the kind of experiment: Cytotoxic effect on MAT LyLu cells (trypan blue). The note with it: 24 hr or 48 hr exposure. The class given is cell-based, rat. The protocol: Cell viability was estimated by trypan blue staining following exposure to the drugs. The results of these studies are summarized in FIG. 4A (24 hours) and FIG. 4B (48 hr). Data are presented as Mean±SEM from three separate experiments.

Data set [4] relates to gelatinase A (MMP-2). As to the kind of experiment: Gelatin zymography of conditioned media of TSU PR1 and MAT LyLu cells, MMP-2. The class given is cell-based. The note with it: 48 hours, serum-free medium. Here is the method:
Next we examined whether CMT-3 and doxycycline differentially affect the production of two major classes of gelatinases: gelatinase A (MMP-2) and gelatinase B (MMP-9). Confluent cultures of TSU PR1 and MAT LyLu cells were incubated with various concentrations of doxycycline and CMT-3 for 48 hours in serum-free medium. The conditioned media were then analyzed for MMPs by zymography as described below.
Conditioned media were collected from the cultures that had been treated with doxycycline or CMT-3 for 2 days. Media were then incubated with SDS-gel electrophoresis sample buffer for 30 min at room temperature, and then analyzed by gel electrophoresis on SDS-polyacrylamide gel (8%) containing gelatin (1 mg/mL). Following electrophoresis, the gels were washed twice with 0.25% TRITON® X100 for 30 min each, and incubated for 18 hr at 37° C. in an MMP digestion buffer comprising 20 mM Tris-HCl, pH 7.4, containing 30 mM NaCl, 1 mM PMSF, 10 mM CaCl2, 2 μM ZnSO4, 0.005% Brij35, and 0.02 NaN3 (Lokeshwar 1993a). After incubation, the gels were briefly rinsed in distilled water and stained with 0.25% Coomassie brilliant blue R250 prepared in 40% isopropanol solution for 1 hr. Gels were destained with 7% acetic acid. the locations of MMPs in the gels were visible as clear areas on a blue background, indicative of digested gelatin.

For data set [5], the system named is normal prostate stromal cells. In words: Alamar Blue viability assay, normal prostate stromal cells. The class given is cell-based, human. The text has this: (§1) Several cancer cell lines and normal cells were examined in vitro to determine whether tetracycline compounds produce cytotoxic (cell killing) effects. A conventional assay for viability of cultured cells based on redox activity in the cells was employed (Pagé et al. 1993). The assay uses a redox dye Alamar Blue, which is a fluorogenic indicator dye that is converted to a fluorescent red product only when cells are carrying out electron transport activity, a widely accepted criterion of viability.
Cultured cells from three prostate tumor cell lines, LNCAP, DU-145, and PC-3, and normal prostate stromal cells obtained by biopsy of a normal person, were allowed to grow to confluence in multiwell microplates to minimize differences in proliferative activity among the cell types at the time of exposure to the test compound. […] At the start of the experiment, and again at 1, 2, and 3 days, selected wells were incubated with the indicator dye for 3 hr, and the fluorescence was measured on a Cytofluor 2300 fluorescent microplate reader.

For data set [6], the system named is LNCAP cells. In words: Alamar Blue viability assay, LNCAP. The class given is cell-based, human.
Source text: as §1
(§2) Cultured cells from three prostate tumor cell lines, LNCAP, DU-145, and PC-3, and normal prostate stromal cells obtained by biopsy of a normal person, were allowed to grow to confluence in multiwell microplates to minimize differences in proliferative activity among the cell types at the time of exposure to the test compound. CMT-3 was added to the wells at concentrations of 10 μM and 20 μM (50 μM also in the case of DU-145). At the start of the experiment, and again at 1, 2, and 3 days, selected wells were incubated with the indicator dye for 3 hr, and the fluorescence was measured on a Cytofluor 2300 fluorescent microplate reader.

Data set [7] has as its system C8161 cells. As to the kind of experiment: In vivo metastasis assay, C8161 cells i.v. in SCID mice. The note with it: for Number of Lung Metastases/Mouse: Average ± SEM, control 231 ± 49. The protocol: Immunosuppressed mice (athymic nude/nude SCID females from Harlan Sprague Dawley) were housed in autoclaved cages with microisolator tops, and all manipulations of the animals were done in a laminar flow hood after wiping down both the hood, gloves and cages with ABQ sterilant. The mice were fed sterile Pico Lab Chow (Purina) and autoclaved St. Louis tap water. […] The compounds and control (sterile water plus 2% carboxymethyl cellulose) were kept stored at −80° C. wrapped in aluminum foil to prevent any light induced changes, and each day's supply was thawed just prior to use. Four compounds were tested for their effects on the metastatic potential of C8161 cells injected intravenously via the tail vein: […] The concentration of the compounds in the vials used to give the 100 mg/kg doses were 2.5 times that in the 40 mg/kg dose so that approximately the same volume was used in both cases, approximately 0.5 mL/animal. The experiments started with nine animals per group at day −4. On day zero, 2×10^5 C8161 cells in cold Hank's Balanced Salt Solution (HBSS) were injected intravenously via tail vein inoculation. The experiment was continued for an additional 24 days, at which time the animals were sacrificed and their lungs removed and fixed in a solution of Bouins/formaldehyde (5 parts:1 part). Tumors were quantitated on the entire surface of the lungs by rotating the lungs and counting the tumors on each lobe using a 6× magnifying glass. Statistical analysis was performed using the statistical package of Microsoft's Excel spreadsheet software.

For data set [8], the system named is E-10 Cells. As to the kind of experiment: MTS cytotoxicity assay, E-10. The note with it: two days.
In data set [9] the test system is PC-3 tumor cells. As to the kind of experiment: Alamar Blue viability assay, PC-3. The data set is classed as cell-based, human.
Source text: as §1, §2

In turn, `NC(=O)C1=C(O)CC2CC3Cc4cccc(O)c4C(=O)C3=C(O)C2(O)C1=O` (stereo not drawn) [CMT-3, 6-demethyl-6-deoxy-4-de(dimethylamino)tetracycline] displayed an inhibition at 5 µg/mL in data set [1] of 90%. The percent cytotoxicity in [2] (5 μM) is 25.9%; in data set [2] (10 μM), 38.9%; in data set [2] (20 μM) it was 37%; in data set [2] (50 μM), 86.7%; in data set [2] (100 μM), 86.7%; in [8] (10 μM), 1.8%. In addition, in data set [8] (20 μM), the percent cytotoxicity was 4.15% and 8.5%. In data set [3], the “inhibition of cell proliferation (rank among tested drugs)” value is recorded as “most effective inhibitors of cell proliferation”. Moreover, in data set [4], the “MMP-2 levels in conditioned media (zymography)” value was “decreased MMP-2 and MMP-9 levels at a lower concentration than did doxycycline”. Further, the “change in fluorescence (viability)” value in [5] (10 μM and 20 μM, three-day period) is on record as “virtually no change in fluorescence”. Also, the cytotoxicity entry in data set [5] (50 µM) is given as “no comparable cytotoxicity”; in data set [6] (10 μM, 24 hr), “nearly complete”; in [9] (24 hr), “about 25%”; in data set [9] (48 hr) it was around 50%; in data set [9] (72 hr), around 75%. Further, the “time to complete cytotoxicity” value in [6] (20 μM) was at most 24 h. The “Number of Lung Metastases/Mouse” value turned out to be 111 ± 105 in [7] (40 mg/kg daily intragastric) and 176 ± 82 in data set [7] (100 mg/kg daily intragastric). Besides, the “effect on number of lung metastases (significance)” value is “significantly reduced the number of lung metastases” in data set [7] (40 mg/kg daily, p<0.05) and “did not significantly reduce the number of lung metastases” in data set [7] (100 mg/kg).
